# Test results taken from US12384813B2, “Polymer linked multimers of guanosine-3′, 5′-cyclic monophosphates” (MIRECA MEDICINES GMBH, priority 2016, dated 2025).
# Experiments:
# [1] = target: T1, PKG Iα (Homo sapiens, UniProt Q13976); details: cited from earlier work
# T1 sequence (Q13976 1-671): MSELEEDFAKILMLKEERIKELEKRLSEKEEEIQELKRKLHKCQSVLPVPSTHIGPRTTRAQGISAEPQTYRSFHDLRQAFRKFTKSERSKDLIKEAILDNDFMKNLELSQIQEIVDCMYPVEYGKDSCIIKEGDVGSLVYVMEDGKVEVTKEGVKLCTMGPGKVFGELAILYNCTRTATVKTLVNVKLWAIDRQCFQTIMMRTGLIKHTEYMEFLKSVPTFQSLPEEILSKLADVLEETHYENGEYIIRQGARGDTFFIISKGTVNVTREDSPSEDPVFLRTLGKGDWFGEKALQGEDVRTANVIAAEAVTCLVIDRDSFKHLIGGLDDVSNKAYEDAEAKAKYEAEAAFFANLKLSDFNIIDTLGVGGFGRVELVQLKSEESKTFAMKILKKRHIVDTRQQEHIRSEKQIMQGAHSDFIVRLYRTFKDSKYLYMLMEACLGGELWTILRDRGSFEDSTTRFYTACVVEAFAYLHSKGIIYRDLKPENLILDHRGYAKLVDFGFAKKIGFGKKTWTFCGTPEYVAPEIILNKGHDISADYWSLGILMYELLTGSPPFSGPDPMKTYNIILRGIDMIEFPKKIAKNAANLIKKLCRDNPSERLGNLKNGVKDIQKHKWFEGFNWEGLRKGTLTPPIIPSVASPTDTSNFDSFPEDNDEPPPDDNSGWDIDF
# [2] = target: T2, PKG II (Homo sapiens, UniProt Q13237); assay: In vitro activation of PKG II, ADP-Glo Kinase Assay (luminescence), VASPtide substrate; details: compound lacking PET moiety vs compound 5
# T2 sequence (Q13237 1-762): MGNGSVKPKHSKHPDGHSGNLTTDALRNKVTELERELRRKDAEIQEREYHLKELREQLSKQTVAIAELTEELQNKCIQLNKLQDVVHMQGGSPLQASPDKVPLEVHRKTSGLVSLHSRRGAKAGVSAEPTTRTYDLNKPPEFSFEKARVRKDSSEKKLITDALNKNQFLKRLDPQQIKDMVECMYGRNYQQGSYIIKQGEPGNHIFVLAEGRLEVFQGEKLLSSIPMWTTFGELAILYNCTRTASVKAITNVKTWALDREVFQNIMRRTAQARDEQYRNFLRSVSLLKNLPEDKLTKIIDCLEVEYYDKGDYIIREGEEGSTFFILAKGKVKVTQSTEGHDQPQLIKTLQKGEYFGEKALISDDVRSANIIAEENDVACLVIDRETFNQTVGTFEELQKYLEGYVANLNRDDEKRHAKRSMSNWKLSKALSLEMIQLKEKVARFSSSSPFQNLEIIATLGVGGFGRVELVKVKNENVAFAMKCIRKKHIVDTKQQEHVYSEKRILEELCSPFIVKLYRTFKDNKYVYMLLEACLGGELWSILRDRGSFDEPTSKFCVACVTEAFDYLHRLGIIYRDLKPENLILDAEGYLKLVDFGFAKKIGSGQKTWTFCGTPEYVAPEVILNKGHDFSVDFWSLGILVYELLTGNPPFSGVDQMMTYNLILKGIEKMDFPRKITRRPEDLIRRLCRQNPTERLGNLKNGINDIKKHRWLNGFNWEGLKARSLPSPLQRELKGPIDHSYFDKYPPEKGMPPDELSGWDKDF
# Method: (§1) In vitro activation experiments with PKG isozymes Iα, Iβ and II were performed with the commercially available luminescence assay ADP-Glo™ Kinase Assay (Cat. #V9101) from Promega Corporation (Madison, WI, USA) according to the manufacturer's instruction manual (The ADP-Glo™ Kinase Assay Technical Manual #TM313), standardized and conducted by BIAFFIN GmbH & Co KG (Kassel, Germany). Luminescence detection was accomplished with a LUMIstar Optima microplate luminometer from BMG LABTECH GmbH (Ortenberg, Germany). […] Human PKGIβ and PKGII were expressed in Sf9 cells and purified by affinity chromatography.^2 Concentrations of enzymes given below refer to the dimeric form.
# PKG II (0.5 nM), 20 mM Tris (pH 7.4), 10 mM Mg2Cl2, 1 mg/mL BSA, 5 mM (3-mercaptoethanol, 2.5% DMSO, 130 μM VASPtide, 50 μM ATP, room temperature, 120 min.
# [3] = target: T3, PKG Iβ (Homo sapiens, UniProt Q13976); assay: In vitro activation of PKG Iβ, ADP-Glo Kinase Assay (luminescence), VASPtide substrate; format: biochemical; details: compound lacking PET moiety vs compound 5
# T3 construct: made in house; host or cells: Sf9 cells
# T3 sequence (Q13976 1-686 isoform Q13976-2): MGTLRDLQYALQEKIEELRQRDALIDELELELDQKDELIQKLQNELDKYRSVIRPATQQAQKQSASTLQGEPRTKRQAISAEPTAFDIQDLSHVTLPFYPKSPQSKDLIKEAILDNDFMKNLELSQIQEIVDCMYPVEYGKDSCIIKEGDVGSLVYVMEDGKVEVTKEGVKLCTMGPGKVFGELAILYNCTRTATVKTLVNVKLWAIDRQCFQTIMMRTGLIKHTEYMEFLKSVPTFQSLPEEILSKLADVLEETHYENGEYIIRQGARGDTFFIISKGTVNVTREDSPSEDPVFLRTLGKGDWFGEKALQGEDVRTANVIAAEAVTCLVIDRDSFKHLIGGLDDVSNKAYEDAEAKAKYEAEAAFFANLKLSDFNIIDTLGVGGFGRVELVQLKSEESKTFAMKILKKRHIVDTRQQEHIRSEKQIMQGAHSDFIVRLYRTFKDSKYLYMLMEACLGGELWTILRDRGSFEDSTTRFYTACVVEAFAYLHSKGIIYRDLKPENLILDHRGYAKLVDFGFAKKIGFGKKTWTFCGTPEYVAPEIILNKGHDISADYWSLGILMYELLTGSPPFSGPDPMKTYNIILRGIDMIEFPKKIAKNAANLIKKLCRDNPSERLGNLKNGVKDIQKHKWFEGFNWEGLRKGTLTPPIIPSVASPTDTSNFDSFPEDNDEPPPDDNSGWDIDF
# Method: as §1
# PKG Iβ (0.15 nM), 20 mM Tris (pH 7.4), 10 mM Mg2Cl2, 1 mg/mL BSA, 2.5% DMSO, 130 μM VASPtide, 50 μM ATP, room temperature, 60 min.
# [4] = Water solubility of alkyl spacer PLDs; format: physicochemical; details: alkyl spacers with moderate size
smiles,measurement,setting,value
"Nc1nc2c(nc(Sc3ccccc3N)n2[C@@H]2O[C@@H]3COP(=O)(O)O[C@H]3[C@H]2O)c(=O)[nH]1 [8-APT-cGMP, 8-(2-NH2-Ph-S)-cGMP]",PKG Iα activation potential compared to cGMP (literature),[1],about 15 fold
"Nc1nc2c(nc(SCC(=O)NCCOCCOCCOCCOCCOCCOCCOCCOCCNC(=O)CSc3nc4c(=O)[nH]c(N)nc4n3C3OC4COP(=O)(O)OC4C3O)n2C2OC3COP(=O)(O)OC3C2O)c(=O)[nH]1 (stereo not shown) [compound 3, Guanosine-3′,5′-cyclic monophosphate-[8-thiomethylamido-(octaethoxy)-ethylamidomethylthio-8]-guanosine-3′,5′-cyclic monophosphate]",increase of relative PKG II activation compared to compound 5,[2],30 fold
same,decrease of relative PKG Iβ activation compared to compound 5,[3],more than 51 fold
"Nc1nc2c(nc(SCCCCCCCCCCCCSc3nc4c(=O)[nH]c(N)nc4n3[C@@H]3OC4COP(=O)(O)O[C@H]4C3O)n2[C@@H]2OC3COP(=O)(O)O[C@H]3C2O)c(=O)[nH]1 (stereo partly shown) [compound 16, Guanosine-3′,5′-cyclic monophosphate-[8-thio(dodecanyl)-thio-8]-guanosine-3′,5′-cyclic monophosphate]",water solubility,[4],sufficient water solubility
